From patent US12403144B2, “HECT E3 ligase inhibitors and uses thereof” (IFOM FONDAZIONE ISTITUTO FIRC DI ONCOLOGIA MOLECOLARE, priority 2019, dated 2025)
Counter-ions that a name gives are not always drawn.

Biological target: T1, untagged HECT of NEDD4L (E3 ligase) (Homo sapiens, UniProt Q96PU5)
T1 construct: using untagged HECT of NEDD4L (E3 ligase) instead of untagged HECT of NEDD4 wild-type (WT) (E3 ligase); made in house; host or cells: bacteria (printed for the NEDD4L HECT of the western-blot assay; not repeated here)
T1 sequence (Q96PU5 594-975 limits assumed): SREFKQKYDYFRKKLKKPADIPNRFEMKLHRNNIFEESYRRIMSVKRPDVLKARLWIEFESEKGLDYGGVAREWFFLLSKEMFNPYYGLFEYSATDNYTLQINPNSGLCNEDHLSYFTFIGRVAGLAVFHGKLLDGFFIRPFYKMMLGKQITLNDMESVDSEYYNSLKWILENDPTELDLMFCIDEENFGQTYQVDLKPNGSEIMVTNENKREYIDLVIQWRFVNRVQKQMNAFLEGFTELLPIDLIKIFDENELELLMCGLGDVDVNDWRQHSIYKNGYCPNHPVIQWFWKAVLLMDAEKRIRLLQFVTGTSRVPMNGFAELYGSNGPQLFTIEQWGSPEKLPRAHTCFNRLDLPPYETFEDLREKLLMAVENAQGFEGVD
Test: In vitro ubiquitination assay TR-FRET based, NEDD4L
Type: biochemical
Details: read-out: percentage of inhibition (NEDD4L)
Protocol: To determine the selectivity of identified NEDD4 inhibitors, it was quantitatively measured the self-ubiquitination process of the E3 HECT ligase belonging to NEDD4 family such as NEDD4L, HECW2 and ITCH in presence or not of some compounds such as 5, 9, 12, 29, 42, 45, 56, 58, 61, 77, 78, 85 and 94 employing TR-FRET based assays.
The assay was performed as described above in the paragraph titled “In vitro ubiquitination assay TR-FRET based” under the heading “2.1. NEDD4 UBIQUITINATION ASSAYS” using untagged HECT of NEDD4L (E3 ligase) instead of untagged HECT of NEDD4 wild-type (WT) (E3 ligase). In this case, final E1, E2 and E3 concentrations in the assay buffer (Tris-HCl pH 7.6 25 mM, NaCl 100 mM, MgCl2 5 mM and Tween 0.01%) were 30, 350 and 31.3 nanomolars, respectively. Untagged HECT NEDD4L (E3 ligase) enzyme was produced and purified as reported in E. Maspero et al. Methods Mol Biol. 1449:153-60 (2016) and in E. Maspero et al. EMBO Reports 12:342-349(2011).

Compound | inhibition at 11 µM
CCOC(=O)/C=C/CCNCCCN1c2ccccc2CCc2ccc(Cl)cc21 [Compound 5, Ethyl (E)-5-[3-(3-chloro-10,11-dihydro-5H-dibenzo[b,f]azepin-5-yl)propylamino]pent-2-enoate maleate] | < 15%
CCOC(=O)/C=C/CNCCCCN1c2ccccc2C(=O)N(C)c2ccc(Cl)cc21 [Compound 29, Ethyl (E)-4-{[4-(7-chloro-10-methyl-11-oxo-10,11-dihydro-5H-dibenzo[b,e][1,4]diazepin-5-yl)butyl]amino}but-2-enoate maleate] | ≤ 20%
CCOC(=O)/C=C/CNCCCCN1c2cc(Cl)ccc2C(=O)N(C)c2ccccc21 [Compound 42, Ethyl (E)-4-{[4-(3-chloro-10-methyl-11-oxo-10,11-dihydro-5H-dibenzo[b,e][1,4]diazepin-5-yl)butyl]amino}but-2-enoate maleate] | < 15%
CCOC(=O)/C=C/CNCCCCN1c2ccccc2C(=O)N(Cc2ccccc2)c2ccc(Cl)cc21 [Compound 45, Ethyl (E)-4-{[4-(10-benzyl-7-chloro-11-oxo-10,11-dihydro-5H-dibenzo[b,e][1,4]diazepin-5-yl)butyl]amino}but-2-enoate maleate] | ≤ 20%
CCOC(=O)/C=C/CNCCCCN1c2cc(Cl)ccc2C(=O)N(Cc2ccccc2)c2ccccc21 [Compound 56, Ethyl (E)-4-((4-(10-benzyl-3-chloro-11-oxo-10,11-dihydro-5H-dibenzo[b,e][1,4]diazepin-5-yl)butyl)amino)but-2-enoate maleate] | ≤ 20%
COC(=O)/C=C/CN(C)CCCCN1c2cc(Cl)ccc2C(=O)N(Cc2ccccc2)c2ccccc21 [Compound 58, Methyl (E)-4-{[4-(10-benzyl-3-chloro-11-oxo-10,11-dihydro-5H-dibenzo[b,e][1,4]diazepin-5-yl)butyl](methyl)amino}but-2-enoate maleate] | < 5%
CN(C/C=C/C#N)CCCCN1c2cc(Cl)ccc2C(=O)N(Cc2ccccc2)c2ccccc21 [Compound 61, (E)-4-{[4-(10-benzyl-3-chloro-11-oxo-10,11-dihydro-5H-dibenzo[b,e][1,4]diazepin-5-yl)butyl](methyl)amino}but-2-enenitrile maleate] | < 5%
CONC(=O)/C=C/CNCCCCN1c2ccccc2CCc2ccc(Cl)cc21 [Compound 78, (E)-4-[4-(3-Chloro-10,11-dihydro-5H-dibenzo[b,f]azepin-5-yl)butylamino]-N-methoxy-but-2-enamide maleate] | < 5%

Other lines, results leading:

inhibition at 11 µM | Compound
< 5% | CON(C)C(=O)/C=C/CN(C)CCCCN1c2ccccc2CCc2ccc(Cl)cc21 [Compound 9, (E)-4-[4-(3-Chloro-10,11-dihydro-5H-dibenzo[b,f]azepin-5-yl)butyl-methyl-amino]-N-methoxy-N-methyl-but-2-enamide]
< 15% | CCOC(=O)/C=C/CNCCCCN1c2ccccc2CCc2ccc(Cl)cc21.O=C(O)/C=C\C(=O)O [Compound 12, Ethyl (E)-4-[4-(3-chloro-10,11-dihydro-5H-dibenzo[b,f]azepin-5-yl)butylamino]but-2-enoate maleate]
< 15% | C#CCON(C)C(=O)/C=C/CN(C)CCCCN1c2ccccc2CCc2ccc(Cl)cc21 [Compound 77, (E)-4-[4-(3-Chloro-10,11-dihydro-5H-dibenzo[b,f]azepin-5-yl)butyl-methyl-amino]-N-methyl-N-prop-2-ynoxy-but-2-enamide maleate]
< 5% | CONC(=O)/C=C/CN(C)CCCCN1c2ccccc2CCc2ccc(Cl)cc21 [Compound 85, (E)-4-[4-(3-Chloro-10,11-dihydro-5H-dibenzo[b,f]azepin-5-yl)butyl-methyl-amino]-N-methoxy-but-2-enamide maleate]
< 15% | CN(C/C=C/C(=O)OCCOCCOCCOCCNC(=O)CCCC[C@@H]1SC[C@@H]2NC(=O)N[C@@H]21)CCCCN1c2ccccc2CCc2ccc(Cl)cc21 [Compound 94, 2-[2-(2-{2-[5-((3aS,4S,6aR)-2-Oxo-hexahydro-thieno[3,4-d]imidazol-4-yl)-pentanoylamino]-ethoxy}-ethoxy)-ethoxy]-ethyl (E)-4-{[4-(3-chloro-10,11-dihydro-dibenzo[b,f]azepin-5-yl)-butyl]-methyl-amino}but-2-enoate]
